For data set [1] the following is noted: background statement; cited from earlier work.
The nature of data set [2]: Sensory evaluation (taste test) of Reb D3 against sucrose controls by a panel of nine volunteers. The data set is classed as in vivo, human. The following applies: for overall % sweetness equivalence (SE) average: room temperature, vs 1.0%, 3.0%, 6.0% sucrose (w/v), nine volunteers. The method, then:
In this Example, a taste test was conducted on Reb D3.
Sensory evaluation of Reb D3 was performed using sucrose as a control. The sucrose sample purchased from Sigma-Aldrich and prepared control samples at three different concentrations of 1.0%, 3.0%, and 6.0% sucrose in bottled water (w/v) at room temperature. The steviol glycoside Reb D3 at 300, and 600 ppm for sensory evaluation was prepared by adding corresponding mass into a 1000 mL of bottled water. The mixture was stirred at room temperature and the steviol glycoside sample was then evaluated against several control sucrose samples at 1.0%, 3.0%, and 6.0% by a panel of nine volunteers.

The nature of data set [3]: Solubility in water of Reb D3 compared to Reb D. It counts as physicochemical. The source says:
In this Example, the solubility of Reb D3 was compared to Reb D.

`C=C1C[C@@]23CC[C@H]4[C@@](C)(CCC[C@@]4(C)C(=O)O[C@@H]4O[C@H](CO)[C@@H](O)[C@H](O)[C@H]4O)[C@@H]2CC[C@]1(O[C@@H]1O[C@H](CO)[C@@H](O)[C@H](O)[C@H]1O[C@@H]1O[C@@H](C)[C@H](O)[C@@H](O)[C@H]1O)C3` [Dulcoside A]: the “times sweeter than sucrose” value in data set [1] is “about 30 times”.

With `C=C1C[C@@]23CCC4[C@](C)(C(=O)OC5OC(CO)C(O)C(O)C5OC5OC(CO)C(O)C(O)C5O)CCC[C@@]4(C)[C@@H]2CCC1(OC1OC(COC2OC(CO)C(O)C(O)C2O)C(O)C(O)C1OC1OC(CO)C(O)C(O)C1O)C3` (stereo partly drawn) [Reb D3, 13-[(2-O-β-D-glucopyranosyl-6-O-β-D-glucopyranosyl-β-D-glucopyranosyl)oxy] ent-kaur-16-en-19-oic acid-(2-O-β-D-glucopyranosyl-β-D-glucopyranosyl) ester], the entries for the “overall % sweetness equivalence (SE) average” value in data set [2] (300 ppm in bottled water) and in data set [2] (600 ppm in bottled water) were “about 2.4%” and around 5.4%, respectively. Further, in data set [2] (from SE at 300 and 600 ppm), the “times sweeter to sucrose” value is 80-90 times. In addition, in data set [3], the “solubility in water compared with Reb D” value is given as “higher solubility in water than does Reb D”. In addition, the dissolution in water result in data set [3] (solutions of 0.25 mM, 0.5 mM, 1 mM, 1.5 mM, 2 mM, 5 mM and 10 mM in water) is recorded as “completely dissolved in water immediately”.

With `C=C1C[C@@]23CC[C@H]4[C@@](C)(CCC[C@@]4(C)C(=O)O[C@@H]4O[C@H](CO)[C@@H](O)[C@H](O)[C@H]4O[C@@H]4O[C@H](CO)[C@@H](O)[C@H](O)[C@H]4O)[C@@H]2CC[C@]1(O[C@@H]1O[C@H](CO)[C@@H](O)[C@H](O[C@@H]2O[C@H](CO)[C@@H](O)[C@H](O)[C@H]2O)[C@H]1O[C@@H]1O[C@H](CO)[C@@H](O)[C@H](O)[C@H]1O)C3` [Reb D, Rebaudioside D], the “dissolution in water when heated” value in data set [3] (0.5 mM, 1 mM, 1.5 mM, 2 mM, 5 mM and 10 mM, heated at 30° C. for 72 hours) was “did not dissolve”. Further, in data set [3] (tested 0.25-10 mM in water), the “concentration that totally dissolved in water” value came to 250 µM.

For the compound `C=C1C[C@@]23CC[C@H]4[C@@](C)(CCC[C@@]4(C)C(=O)O[C@@H]4O[C@H](CO)[C@@H](O)[C@H](O)[C@H]4O)[C@@H]2CC[C@]1(O[C@@H]1O[C@H](CO)[C@@H](O)[C@H](O[C@@H]2O[C@H](CO)[C@@H](O)[C@H](O)[C@H]2O)[C@H]1O[C@@H]1O[C@H](CO)[C@@H](O)[C@H](O)[C@H]1O)C3` [Rebaudioside A], the after-taste entry in data set [1] was “less of an after-taste than stevioside”.

Turning to `C=C1C[C@@]23CC[C@H]4[C@@](C)(CCC[C@@]4(C)C(=O)O[C@@H]4O[C@H](CO)[C@@H](O)[C@H](O)[C@H]4O)[C@@H]2CC[C@]1(O[C@@H]1O[C@H](CO)[C@@H](O)[C@H](O[C@@H]2O[C@H](CO)[C@@H](O)[C@H](O)[C@H]2O)[C@H]1O[C@@H]1O[C@@H](C)[C@H](O)[C@@H](O)[C@H]1O)C3` [Rebaudioside C], the “times sweeter than sucrose” value in data set [1] is 40-60 times.

Turning to `C=C1C[C@@]23CC[C@H]4[C@@](C)(CCC[C@@]4(C)C(=O)O[C@@H]4O[C@H](CO)[C@@H](O)[C@H](O)[C@H]4O)[C@@H]2CC[C@]1(O[C@@H]1O[C@H](CO)[C@@H](O)[C@H](O)[C@H]1O[C@@H]1O[C@H](CO)[C@@H](O)[C@H](O)[C@H]1O)C3` [Stevioside], in data set [1], the after-taste result is “bitter after-taste” and the “times sweeter than sucrose” value was 100-150 times.

For the compound `C=C1C[C@@]23CCC4[C@](C)(C(=O)OC5OC(CO)C(O)C(O)C5OC5OC(CO)C(O)C(O)C5O)CCC[C@@]4(C)[C@@H]2CCC1(OC1OC(CO)C(O)C(O)C1OC1OC(CO)C(O)C(O)C1O)C3` (stereo partly shown) [rebaudioside E, Rebaudioside E], in data set [1], the after-taste result is “less of an after-taste than stevioside”.

These data come from patent US10941174B2, “Non-caloric sweetener” (Conagen Inc., priority 2014, dated 2021).
